Results as given in ChEMBL document CHEMBL4261503, “Scaffold hopping via ANCHOR.QUERY: β-lactams as potent p53-MDM2 antagonists†” (Medchemcomm, 2017).

Tests used:
Protein Mdm4 = biological target: T1, Protein Mdm4 (Homo sapiens, UniProt O15151)
T1 sequence (O15151 whole entry): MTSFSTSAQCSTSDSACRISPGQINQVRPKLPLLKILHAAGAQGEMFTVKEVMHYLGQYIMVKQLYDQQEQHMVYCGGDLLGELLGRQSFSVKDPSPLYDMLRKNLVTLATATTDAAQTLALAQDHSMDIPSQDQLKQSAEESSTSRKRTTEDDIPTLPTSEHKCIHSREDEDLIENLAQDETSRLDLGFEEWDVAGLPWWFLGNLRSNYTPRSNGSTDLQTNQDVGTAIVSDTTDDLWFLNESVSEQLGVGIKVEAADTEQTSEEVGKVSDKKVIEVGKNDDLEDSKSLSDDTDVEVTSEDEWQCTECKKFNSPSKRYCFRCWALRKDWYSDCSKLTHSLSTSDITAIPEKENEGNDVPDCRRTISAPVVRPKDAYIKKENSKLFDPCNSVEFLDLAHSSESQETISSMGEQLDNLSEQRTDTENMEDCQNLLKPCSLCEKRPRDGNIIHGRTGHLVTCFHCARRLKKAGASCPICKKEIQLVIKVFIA

[1] = biological target: E3 ubiquitin-protein ligase Mdm2 (Homo sapiens, UniProt Q00987)
Chain of E3 ubiquitin-protein ligase Mdm2 (Q00987 whole entry): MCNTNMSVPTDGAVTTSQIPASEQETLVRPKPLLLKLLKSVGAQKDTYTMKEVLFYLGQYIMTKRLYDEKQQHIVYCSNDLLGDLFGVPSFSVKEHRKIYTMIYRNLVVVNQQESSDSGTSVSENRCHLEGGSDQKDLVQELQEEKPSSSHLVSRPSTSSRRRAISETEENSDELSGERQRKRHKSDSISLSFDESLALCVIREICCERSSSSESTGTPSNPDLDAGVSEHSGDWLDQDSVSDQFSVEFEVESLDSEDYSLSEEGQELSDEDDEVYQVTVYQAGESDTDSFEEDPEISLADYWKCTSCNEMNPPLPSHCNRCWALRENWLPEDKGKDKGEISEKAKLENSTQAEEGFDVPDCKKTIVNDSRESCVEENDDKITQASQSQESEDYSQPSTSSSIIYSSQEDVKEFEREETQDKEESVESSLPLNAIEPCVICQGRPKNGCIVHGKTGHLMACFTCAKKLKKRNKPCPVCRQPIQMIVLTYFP

Row | SMILES | Ki (Protein Mdm4) | Ki [1]
1 | CC(C)(C)NC(=O)C(c1ccc(Cl)cc1)N1C(=O)CC1c1ccc(OCc2ccccc2)cc1 (mixture of isomers) | Not Active | Not Active
2 | O=C(NC12CC3CC(CC(C3)C1)C2)C(c1ccc(Cl)cc1)N1C(=O)CC1c1ccc(OCc2ccccc2)cc1 (single isomer, unassigned; diastereomer A) | Not Active | Not Active
